{"source": "patent US11331290B2", "about": "“Niclosamide for the treatment of cancer metastasis” (Max-Delbrück-Centrum für Molekulare Medizin in der …, priority 2011, dated 2022)", "format_in_all_cases": "cell-based, human", "key": {"[1]": {"system": "WNT/CTNNB1 pathway (LEF/TCF transcription factor reporter)", "test": "WNT/CTNNB1 pathway activity reporter assay (TOP/FOPflash)", "conditions": "24 h", "source_text": "The lymphoid enhancer-binding factor 1 (LEF)/transcription factor (TCF) activity reporter assay, also known as TOP/FOPflash assay (Promega, Madison, Wis.) was previously used to analyze the WNT/CTNNB1 pathway activity in human colon cancer cells (24). It comprises the TOPflash plasmid which contains a hexameric repetition of the LEF/TCF-binding element upstream of a thymidine kinase (TK) promoter and firefly luciferase as reporter gene. The FOPflash plasmid comprised the exact sequence of the TOPflash plasmid, but with point mutated LEF/TCF-binding sites. In the assay, 8×10^4 HCT116 cells were plated in 24-well-plates and were given 15 hours to attach to the bottom of the well. Cells were transfected with TOPflash or FOPflash plasmids using Metafecten according to the manufacturer's instruction 24 hours before they were treated with 1 μM niclosamide or the respective amount of DMSO for another 24 hours. Luciferase activity as read out for LEF/TCF activity and thus WNT/CTNNB1 pathway activity was measured by the Steady Glow™ Luciferase Assay System (Promega) according to the manufacturer's instructions in the luminescence reader SpectraFluor Plus (Tecan) with 1500 milliseconds exposure time and a gain of 150. TOPflash reporter gene expression (representing the WNT pathway activity) was normalized to FOPflash reporter gene expression (representing basal reporter gene expression and transfection efficiency). The average of three independent experiments is given here, whereas each experiment was performed in duplicate.\nFor WNT pathway analysis the following cells were applied: HCT116 cells (heterozygous for gain-of-function-mutated CTNNB1; wt/mut), HAB-68mut cells (deletion mutant of HCT116, expressing only gain-of-function-mutated CTNNB1: −/mut) and HAB-92 wt cells (deletion mutant of HCT116, expressing only wild-type CTNNB1: wt/−). (A) CTNNB1 genotype dependent effect of niclosamide on LEF/TCF transcription factor reporter gene expression. Cells were treated with 1 μM niclosamide for 24 hours. Reporter gene expression was determined by luciferase activity measurement. For each condition and cell line TOPflash expression was normalized to FOPflash expression. (B) CTNNB1 genotype dependent effect of niclosamide on S100A4 expression. Cells were treated with 1 μM niclosamide for 24 hours. S100A4 expression was analyzed by qRT-PCR and immunoblot. (C) CTNNB1 genotype dependent effect of niclosamide on migration rates. Cells were treated with 1 μM niclosamide for 24 hours and cell migration was determined by Boyden chamber assay. Data represents mean±SE of at least three independent experiments. Differences were analyzed by Student's t test (n.s.; not statistically significant). (D) Nuclear localization of CTNNB1 under niclosamide treatment. Nuclear extracts of HCT116 cells treated with the indicated concentrations of niclosamide for 18 hours were analyzed by immunoblot. (E) Effect of niclosamide on CTNNB1/TCF complex. Nuclear extracts of HCT116 cells treated with the indicated concentrations of niclosamide for 18 hours were analyzed by EMSA for the TCF-binding site of the S100A4 promoter. Supershift was performed by addition of a monoclonal anti-CTNNB1 antibody. (F) Presence of CTNNB1 on the S100A4 promoter under niclosamide treatment. HCT116 cells were treated with 1 μM niclosamide for 18 hours and processed for ChIP assay. Soluble chromatin was immunoprecipitated with a monoclonal anti-CTNNB1 antibody or a nonspecific control IgG antibody. Primers used in PCR amplified a 167 bp fragment of the S100A4 promoter or 149 bp fragment of the FOS promoter. The input verified the integrity of the PCR. […] Data shown are representatives of at least two independent experiments."}, "HAB-68mut cells": {"system": "HAB-68mut cells", "test": "Boyden chamber transwell migration assay", "conditions": "1 μM, 24 h", "description": "(§1) HCT116, SW620, LS174T, SW480 and DLD-1 cells were used in cell migration and invasion analysis performed with Boyden chamber assay. 400 μL containing 2.5×10^5 cells were seeded into each transwell chamber with filter membranes of 12.0 μm pore size (Millipore, Schwalbach, Germany). For invasion filter membranes were coated with 50 μL Matrigel (diluted 1:3 in RPMI-1640; BD Biosciences) 10 minutes before cells were seeded. Fresh medium (600 μL) were added to the bottom chamber and cells were allowed to attach to the insets for 15 hours. Both chambers were treated with 1 μM niclosamide or the respective amount of DMSO and incubated at 37° C. and 5% CO2 in a humidified incubator for 24 hours. Afterwards insets were removed and cells that had migrated through the membrane to the lower chamber were trypsinized and counted in a Neubauer chamber (LO-Laboroptik, Bad Homburg, Germany). Each well was counted ten times. Each migration or invasion experiment was performed in duplicate. The average number of migrated or invaded cells was determined for at least three independent experiments.\n(§2) For WNT pathway analysis the following cells were applied: HCT116 cells (heterozygous for gain-of-function-mutated CTNNB1; wt/mut), HAB-68mut cells (deletion mutant of HCT116, expressing only gain-of-function-mutated CTNNB1: −/mut) and HAB-92 wt cells (deletion mutant of HCT116, expressing only wild-type CTNNB1: wt/−). (A) CTNNB1 genotype dependent effect of niclosamide on LEF/TCF transcription factor reporter gene expression. Cells were treated with 1 μM niclosamide for 24 hours. Reporter gene expression was determined by luciferase activity measurement. For each condition and cell line TOPflash expression was normalized to FOPflash expression. (B) CTNNB1 genotype dependent effect of niclosamide on S100A4 expression. Cells were treated with 1 μM niclosamide for 24 hours. S100A4 expression was analyzed by qRT-PCR and immunoblot. (C) CTNNB1 genotype dependent effect of niclosamide on migration rates. Cells were treated with 1 μM niclosamide for 24 hours and cell migration was determined by Boyden chamber assay. Data represents mean±SE of at least three independent experiments. Differences were analyzed by Student's t test (n.s.; not statistically significant). (D) Nuclear localization of CTNNB1 under niclosamide treatment. Nuclear extracts of HCT116 cells treated with the indicated concentrations of niclosamide for 18 hours were analyzed by immunoblot. (E) Effect of niclosamide on CTNNB1/TCF complex. Nuclear extracts of HCT116 cells treated with the indicated concentrations of niclosamide for 18 hours were analyzed by EMSA for the TCF-binding site of the S100A4 promoter. Supershift was performed by addition of a monoclonal anti-CTNNB1 antibody. […]"}, "HAB-92 wt cells": {"system": "HAB-92 wt cells", "test": "Boyden chamber transwell migration assay", "conditions": "1 μM, 24 h, statistically not significant", "description": "as §1, §2"}, "HCT116-vector cells": {"system": "HCT116-vector cells", "test": "Boyden chamber invasion assay (Matrigel)", "conditions": "24 h", "description": "as §1\n(§3) (A) Cell migration of HCT116-vector and HCT116-S100A4 cells exposed to niclosamide treatment. Cells were treated with 1 μM niclosamide for 24 hours and migration rates were measured with Boyden chamber assay. (B) Cell invasion of HCT116-vector and HCT116-S100A4 cells exposed to niclosamide treatment. Cells were treated with 1 μM niclosamide for 24 hours and cell invasion was determined by Boyden chamber assay. (C) Directed migration of HCT116-vector and HCT116-S100A4 cells exposed to niclosamide treatment analyzed by wound healing assay. Wounds of 300 μM width were set in a 60% confluent monolayer of HCT116-vector or HCT116-S100A4 cells on day 1. Cells were treated daily with 1 μM niclosamide for 4 days. Microphotographs of day 4 are presented here with black lines indicating margins of entered wound of day 1; scale bar represents 200 μM. Data represents three independent experiments. (D) Adhesive cell proliferation of HCT116-vector and HCT116-S100A4 cells exposed to niclosamide treatment. Cells were treated daily with 1 μM niclosamide and cell viability was determined with MTT assay. (E) Anchorage-independent cell growth of HCT116-vector and HCT116-S100A4 cells exposed to niclosamide treatment. Cells were plated as single cells into 0.33% (w/v) agarose and treatment (solvent or 1 μM niclosamide) containing medium. After 7 days colonies were visualized by light microscopy at 10× (overview) and 40× (single colony) magnification. (F) Quantification of colonies formed. Number of colonies (of more than 4 cells) was counted and normalized to solvent-treated HCT116-vector cells. Differences of niclosamide vs. solvent-treated cells were analyzed by Student's t test. […]"}, "HCT116-S100A4 cells": {"system": "HCT116-S100A4 cells", "test": "Boyden chamber invasion assay (Matrigel)", "conditions": "1 μM, 24 h, statistically not significant", "description": "as §1, §3"}}, "data": [{"compound": "O=C(Nc1ccc([N+](=O)[O-])cc1Cl)c1cc(Cl)ccc1O", "note": "[niclosamide, 2′,5-dichloro-4′-nitrosalicylanilide]", "values": [{"measurement": "WNT pathway activity, mean difference control vs niclosamide", "setting": "[1]; HAB-68mut, 1 μM", "result": 0.90}, {"measurement": "WNT pathway activity (TOPflash normalized to FOPflash), mean", "setting": "[1]; HAB-68mut, 1 μM, control 1.39", "result": 0.50}, {"measurement": "WNT pathway activity, mean difference control vs niclosamide", "setting": "[1]; HAB-92 wt, 1 μM", "result": 0.15}, {"measurement": "WNT pathway activity (TOPflash normalized to FOPflash), mean", "setting": "[1]; HAB-92 wt, 1 μM, control 0.36", "result": 0.21}, {"measurement": "WNT pathway activity, mean difference control vs niclosamide", "setting": "[1]; HCT116, 1 μM", "result": 0.61}, {"measurement": "WNT pathway activity (TOPflash normalized to FOPflash), mean", "setting": "[1]; HCT116, 1 μM, control 1.00", "result": 0.39}, {"measurement": "migration rate, mean difference control vs niclosamide", "setting": "HAB-68mut cells", "result": 0.91}, {"measurement": "migration rate, mean (relative to HCT116 control)", "setting": "HAB-68mut cells; control 1.30", "result": 0.39}, {"measurement": "migration rate, mean (relative to HCT116 control)", "setting": "HAB-92 wt cells; control 0.36", "result": 0.32}, {"measurement": "migration rate, mean difference control vs niclosamide", "setting": "HAB-92 wt cells", "result": 0.04}, {"measurement": "invasion, mean difference control vs niclosamide", "setting": "HCT116-vector cells; 1 μM", "result": 69.9, "unit": "%"}, {"measurement": "activity at 1 µM", "setting": "HCT116-vector cells; Homo sapiens, read-out: number of invaded cells, mean % of control", "result": 30.1, "unit": "%"}, {"measurement": "invasion rate, mean %", "setting": "HCT116-S100A4 cells; solvent control 111.4%", "result": 122.5, "unit": "%"}, {"measurement": "invasion, mean difference control vs niclosamide", "setting": "HCT116-S100A4 cells", "result": "−11.1", "unit": "%"}]}]}
